Results as given in ChEMBL document CHEMBL1201862, “PubChem BioAssay data set” (2004).
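Method: 48-hour compound exposure of cells in 96-well plates, five concentrations, linear interpolation of endpoints. Abbreviation: GI50, concentration required for 50% inhibition of growth.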 Active and inactive are the calls of the source. No stated cut-off is given here; in the data, active = GI50 up to about 1.1 µM and inactive = higher.

Columns and labels:
Experiment in all cases: NCI anticancer screen, dose series, 48 h
T47D = tested on: T47D
786-0 = tested on: 786-0
UACC-62 = tested on: UACC-62
SK-OV-3 = tested on: SK-OV-3
Malme-3M = tested on: Malme-3M
NCI-H23 = tested on: NCI-H23
HOP-92 = tested on: HOP-92
RPMI-8226 = tested on: RPMI-8226
MCF7 = tested on: MCF7
IGROV-1 = tested on: IGROV-1
MDA-MB-231 = tested on: MDA-MB-231
OVCAR-5 = tested on: OVCAR-5
SK-MEL-2 = tested on: SK-MEL-2
LOX IMVI = tested on: LOX IMVI
DU-145 = tested on: DU-145
Hs-578T = tested on: Hs-578T
SF-539 = tested on: SF-539
HCC 2998 = tested on: HCC 2998
RXF 393 = tested on: RXF 393
EKVX = tested on: EKVX
A549 = tested on: A549
SR = tested on: SR
SW-620 = tested on: SW-620
SF-295 = tested on: SF-295
SNB-19 = tested on: SNB-19
U-251 = tested on: U-251
MOLT-4 = tested on: MOLT-4
SK-MEL-5 = tested on: SK-MEL-5
SK-MEL-28 = tested on: SK-MEL-28
OVCAR-3 = tested on: OVCAR-3
A498 = tested on: A498
TK-10 = tested on: TK-10
NCI-H460 = tested on: NCI-H460
NCI/ADR-RES = tested on: NCI/ADR-RES
HCT-116 = tested on: HCT-116
UO-31 = tested on: UO-31
HL-60 = tested on: HL-60
M14 = tested on: M14
NCI-H522 = tested on: NCI-H522
SF-268 = tested on: SF-268
COLO 205 = tested on: COLO 205
OVCAR-4 = tested on: OVCAR-4
HCT-15 = tested on: HCT-15
KM12 = tested on: KM12
HOP-62 = tested on: HOP-62
K562 = tested on: K562
MDA-MB-435 = tested on: MDA-MB-435
CAKI-1 = tested on: CAKI-1
SNB-75 = tested on: SNB-75
NCI-H226 = tested on: NCI-H226
HT-29 = tested on: HT-29
ACHN = tested on: ACHN
PC-3 = tested on: PC-3
OVCAR-8 = tested on: OVCAR-8
CCRF-CEM = tested on: CCRF-CEM
MDA-N = tested on: MDA-N
UACC-257 = tested on: UACC-257
SN12C = tested on: SN12C

Cc1ccc(S(=O)(=O)NC(=O)Nc2cccc(S(N)(=O)=O)c2)cc1
GI50 (T47D): > 100 µM (inactive)
GI50 (786-0): > 100 µM (inactive)
GI50 (UACC-62): > 100 µM (inactive)
GI50 (SK-OV-3): > 100 µM (inactive)
GI50 (Malme-3M): > 100 µM (inactive)
GI50 (NCI-H23): > 100 µM (inactive)
GI50 (HOP-92): > 100 µM (inactive)
GI50 (RPMI-8226): > 100 µM (inactive)
GI50 (MCF7): > 100 µM (inactive)
GI50 (IGROV-1): > 100 µM (inactive)
GI50 (MDA-MB-231): > 100 µM (inactive)
GI50 (OVCAR-5): > 100 µM (inactive)
GI50 (SK-MEL-2): > 100 µM (inactive)
GI50 (LOX IMVI): > 100 µM (inactive)
GI50 (DU-145): > 100 µM (inactive)
GI50 (Hs-578T): > 100 µM (inactive)
GI50 (SF-539): > 100 µM (inactive)
GI50 (HCC 2998): > 100 µM (inactive)
GI50 (RXF 393): > 100 µM (inactive)
GI50 (EKVX): > 100 µM (inactive)
GI50 (A549): > 100 µM (inactive)
GI50 (SR): > 100 µM (inactive)
GI50 (SW-620): > 100 µM (inactive)
GI50 (SF-295): > 100 µM (inactive)
GI50 (SNB-19): > 100 µM (inactive)
GI50 (U-251): > 100 µM (inactive)
GI50 (MOLT-4): > 100 µM (inactive)
GI50 (SK-MEL-5): > 100 µM (inactive)
GI50 (SK-MEL-28): > 100 µM (inactive)
GI50 (OVCAR-3): > 100 µM (inactive)
GI50 (A498): > 100 µM (inactive)
GI50 (TK-10): > 100 µM (inactive)
GI50 (NCI-H460): > 100 µM (inactive)
GI50 (NCI/ADR-RES): > 100 µM (inactive)
GI50 (HCT-116): > 100 µM (inactive)
GI50 (UO-31): > 100 µM (inactive)
GI50 (HL-60): > 100 µM (inactive)
GI50 (M14): > 100 µM (inactive)
GI50 (NCI-H522): > 100 µM (inactive)
GI50 (SF-268): > 100 µM (inactive)
GI50 (COLO 205): > 100 µM (inactive)
GI50 (OVCAR-4): > 100 µM (inactive)
GI50 (HCT-15): > 100 µM
GI50 (KM12): > 100 µM (inactive)
GI50 (HOP-62): > 100 µM (inactive)
GI50 (K562): > 100 µM (inactive)
GI50 (MDA-MB-435): > 100 µM (inactive)
GI50 (CAKI-1): > 100 µM (inactive)
GI50 (SNB-75): > 100 µM (inactive)
GI50 (NCI-H226): > 100 µM (inactive)
GI50 (HT-29): > 100 µM (inactive)
GI50 (ACHN): > 100 µM (inactive)
GI50 (PC-3): > 100 µM (inactive)

CC(C)(C)[Si](C)(C)Oc1cc(CO)cc2c1cc(=N)o[n+]2[O-]
GI50 (T47D): 4.8 µM (inactive)
GI50 (786-0): > 10 µM (inactive)
GI50 (UACC-62): > 10 µM (inactive)
GI50 (OVCAR-8): > 10 µM (inactive)
GI50 (SK-OV-3): > 10 µM (inactive)
GI50 (Malme-3M): > 10 µM (inactive)
GI50 (NCI-H23): 6.97 µM (inactive)
GI50 (RPMI-8226): 6.22 µM (inactive)
GI50 (MCF7): 2.72 µM (inactive)
GI50 (IGROV-1): 8.15 µM (inactive)
GI50 (MDA-MB-231): > 10 µM (inactive)
GI50 (DU-145): > 10 µM (inactive)
GI50 (CCRF-CEM): 2.84 µM (inactive)
GI50 (HCC 2998): 9.35 µM (inactive)
GI50 (RXF 393): 3.96 µM (inactive)
GI50 (MDA-N): > 10 µM (inactive)
GI50 (EKVX): > 10 µM (inactive)
GI50 (A549): > 10 µM (inactive)
GI50 (SR): 2.48 µM (inactive)
GI50 (SW-620): > 10 µM (inactive)
GI50 (SF-295): > 10 µM (inactive)
GI50 (MOLT-4): 2.61 µM (inactive)
GI50 (SK-MEL-5): > 10 µM (inactive)
GI50 (SK-MEL-28): > 10 µM (inactive)
GI50 (UACC-257): > 10 µM (inactive)
GI50 (SN12C): 5.56 µM (inactive)
GI50 (TK-10): > 10 µM (inactive)
GI50 (HL-60): 3.61 µM (inactive)
GI50 (M14): > 10 µM (inactive)
GI50 (SF-268): 6.03 µM (inactive)
GI50 (COLO 205): > 10 µM (inactive)
GI50 (HCT-15): 5.61 µM
GI50 (KM12): 4.1 µM (inactive)
GI50 (HOP-62): > 10 µM (inactive)
GI50 (K562): 4.53 µM (inactive)
GI50 (CAKI-1): > 10 µM (inactive)
GI50 (SNB-75): > 10 µM (inactive)
GI50 (HT-29): 4.18 µM (inactive)
GI50 (PC-3): 4.01 µM (inactive)
